Data as given in patent EP2102204B1, “NEW AMINOPYRROLO[1,2- A]INDOLE ET AMINOPYRIDAZINO[1,6-A]INDOLE DERIVATIVES, METHOD FOR PREPARING THE SAME AND PHARMACEUTICAL COMPOSITIONS CONTAINING THE SAME” (Les Laboratoires Servier, priority 2007, dated 2008).

Tested on: protéine tyrosine hydroxylase (TH)
Assay: Induction of tyrosine hydroxylase in the locus coeruleus of mice (immunodetection and image analysis of brain sections)
Format: in vivo, souris Balb/C
Conditions: i.p. 20 mg/kg, single injection, 3 days after, % par rapport à la valeur moyenne du groupe témoin; for quantité de TH au niveau du LC, coupe 1: coupe 1 du LC (sens antérieur vers postérieur); for quantité de TH au niveau du LC, coupe 2: coupe 2 du LC (sens antérieur vers postérieur); for quantité de TH au niveau du LC, coupe 3: coupe 3 du LC (sens antérieur vers postérieur); for quantité de TH au niveau du LC, coupe 4: coupe 4 du LC (sens antérieur vers postérieur); for quantité de TH au niveau du LC, coupe 5: coupe 5 du LC (sens antérieur vers postérieur); for quantité de TH au niveau du LC, coupe 6: coupe 6 du LC (sens antérieur vers postérieur); for quantité de TH au niveau du LC, coupe 7: coupe 7 du LC (sens antérieur vers postérieur); for quantité de TH au niveau du LC, coupe 8: coupe 8 du LC (sens antérieur vers postérieur)
From the text: Il est recherché, parmi les dérivés, ceux qui sont capables d'induire une augmentation de la protéine tyrosine hydroxylase (TH) dans le cerveau de la souris Balb/C, au niveau du locus coeruleus (LC).
Les animaux utilisés sont des souris mâles de la lignée pure Balb/C (Charles River Laboratories), âgées de 7 à 8 semaines au moment du traitement.
Les souris reçoivent une injection unique par voie intrapéritonéale du composé à tester, dissous dans une solution d'HCl 0,04 M (contrôle correspondant : HCl […]) si le composé est suffisamment soluble, ou dans l'huile d'olive 90 % / DMSO 10 % (contrôle correspondant : huile d'olive 90 % / DMSO 10 %) pour les composés insolubles en milieu aqueux.
Trois jours après l'injection de chaque molécule, tous les animaux sont sacrifiés par décapitation. Les cerveaux extraits sont ensuite congelés dans de l'azote liquide et conservés à -80° C.
Des coupes coronales de 8 microns d'épaisseur sont pratiquées le long de l'axe postéro-antérieur du LC et fixées. Les coupes sont transférées sur membranes Immobilon-P. La TH est mesurée par immunodétection et analyse d'image.

CN1CCC[C@@H]2C(=O)N3c4ccccc4C[C@H]3[C@@H]21 (racemic) [Exemple 7, (4aSR,11aSR,11bRS)-1-Méthyl-1,2,3,4,4a,11,11a,11b-octahydropyrido[2',3':3,4]pyrrolo[1,2-a]indol-5-one]
quantité de TH au niveau du LC, coupe 1 (listed as Ex.7, 20 mg/kg): 59%
quantité de TH au niveau du LC, coupe 2 (listed as Ex.7, 20 mg/kg): 57%
quantité de TH au niveau du LC, coupe 3 (listed as Ex.7, 20 mg/kg): 57%
quantité de TH au niveau du LC, coupe 4 (listed as Ex.7, 20 mg/kg): 51%
quantité de TH au niveau du LC, coupe 5 (listed as Ex.7, 20 mg/kg): 28%
quantité de TH au niveau du LC, coupe 6 (listed as Ex.7, 20 mg/kg): 23%
quantité de TH au niveau du LC, coupe 7 (listed as Ex.7, 20 mg/kg): 13%
quantité de TH au niveau du LC, coupe 8 (listed as Ex.7, 20 mg/kg): 4%

N#CCN1CCC[C@@H]2C(=O)N3c4ccccc4C[C@H]3[C@@H]21 (racemic) [Exemple 10, [(4aSR,11aSR,11bRS)-5-Oxo-3,4,4a,11,11a,11b-hexahydro-2H,5H-pyrido[2',3':3,4]pyrrolo[1,2-a]indol-1-yl]acétonitrile]
quantité de TH au niveau du LC, coupe 1: 58%
quantité de TH au niveau du LC, coupe 2: 50%
quantité de TH au niveau du LC, coupe 3: 49%
quantité de TH au niveau du LC, coupe 4: 47%
quantité de TH au niveau du LC, coupe 5: 34%
quantité de TH au niveau du LC, coupe 6: 26%
quantité de TH au niveau du LC, coupe 7: 18%
quantité de TH au niveau du LC, coupe 8: 1%

O=C1[C@H]2CCCN[C@H]2[C@@H]2Cc3cc(F)ccc3N12 (racemic) [Exemple 24, (4aSR,11aSR,11bRS)-9-Fluoro-1,2,3,4,4a,11,11a,11b-octahydropyrido[2',3':3,4]pyrrolo[1,2-a]indol-5-one]
quantité de TH au niveau du LC, coupe 1: 51%
quantité de TH au niveau du LC, coupe 2: 71%
quantité de TH au niveau du LC, coupe 3: 63%
quantité de TH au niveau du LC, coupe 4: 55%
quantité de TH au niveau du LC, coupe 5: 44%
quantité de TH au niveau du LC, coupe 6: 33%
quantité de TH au niveau du LC, coupe 7: 6%
quantité de TH au niveau du LC, coupe 8: 3%

Cc1ccc2c(c1)CC1C3=C(CCCN3C)C(=O)N21 (racemic) [Exemple 40, (11aRS)-1,9-Diméthyl-1,2,3,4,11,11a-hexahydropyrido [2',3':3,4] pyrrolo[1,2-a]indol-5-one]
quantité de TH au niveau du LC, coupe 1: 72%
quantité de TH au niveau du LC, coupe 2: 96%
quantité de TH au niveau du LC, coupe 3: 66%
quantité de TH au niveau du LC, coupe 4: 66%
quantité de TH au niveau du LC, coupe 5: 58%
quantité de TH au niveau du LC, coupe 6: 34%
quantité de TH au niveau du LC, coupe 7: 39%
quantité de TH au niveau du LC, coupe 8: 4%

O=C1C[C@@H]2[C@H]3[C@@H](CCN2Cc2ccccc2)c2ccccc2N13 (racemic) [Exemple 53, (3aRS,10bSR,10cRS)-3-Benzyl-2,3,3a,4,10b,10c-hexahydrobenzo [b]pyrido [2,3,4-gh]pyrrolizin-5(1H)-one]
quantité de TH au niveau du LC, coupe 1: 82%
quantité de TH au niveau du LC, coupe 2: 68%
quantité de TH au niveau du LC, coupe 3: 64%
quantité de TH au niveau du LC, coupe 4: 71%
quantité de TH au niveau du LC, coupe 5: 53%
quantité de TH au niveau du LC, coupe 6: 52%
quantité de TH au niveau du LC, coupe 7: 32%
quantité de TH au niveau du LC, coupe 8: 18%

C=CCN1CCC[C@@H]2C(=O)N3c4ccccc4C[C@@H]3[C@H]21 [Exemple 6, (4aSR, 11aRS,11bSR)-1-Allyl-1,2,3,4,4a,11,11a,11b-octahydropyrido[2 3'.3':3,4]pyrrolo[1,2-a]indol-5-one]
quantité de TH au niveau du LC, coupe 1 (listed as Ex.6, 20 mg/kg): 65%
quantité de TH au niveau du LC, coupe 2 (listed as Ex.6, 20 mg/kg): 62%
quantité de TH au niveau du LC, coupe 3 (listed as Ex.6, 20 mg/kg): 50%
quantité de TH au niveau du LC, coupe 4 (listed as Ex.6, 20 mg/kg): 53%
quantité de TH au niveau du LC, coupe 5 (listed as Ex.6, 20 mg/kg): 41%
quantité de TH au niveau du LC, coupe 6 (listed as Ex.6, 20 mg/kg): 27%
quantité de TH au niveau du LC, coupe 8 (listed as Ex.6, 20 mg/kg): 6%

CCCN1CC[C@@H]2c3ccccc3N3NC(=O)C[C@H]1[C@@H]23 [Exemple 15, (3aSR,6aRS,10cRS)-4-Propyl-(3a,4,5,6,6a,10c-hexahydro)-3H-1,4,10b-triazafluoranthén-2-one]
quantité de TH au niveau du LC, coupe 1: 79%
quantité de TH au niveau du LC, coupe 2: 75%
quantité de TH au niveau du LC, coupe 3: 72%
quantité de TH au niveau du LC, coupe 4: 79%
quantité de TH au niveau du LC, coupe 5: 33%
quantité de TH au niveau du LC, coupe 6: 27%
quantité de TH au niveau du LC, coupe 7: 7%
quantité de TH au niveau du LC, coupe 8: 5%

Cc1ccc2c(c1)cc1n2C(=O)C2=C1N(C)CCC2 [Exemple 38, 1,9-Diméthyl-1,2,3,4-tétrahydropyrido[2',3':3,4]pyrrolo[1,2-a]indol-5-one]
quantité de TH au niveau du LC, coupe 1: 64%
quantité de TH au niveau du LC, coupe 2: 99%
quantité de TH au niveau du LC, coupe 3: 76%
quantité de TH au niveau du LC, coupe 4: 62%
quantité de TH au niveau du LC, coupe 5: 27%
quantité de TH au niveau du LC, coupe 6: 14%
quantité de TH au niveau du LC, coupe 7: -3%
quantité de TH au niveau du LC, coupe 8: 5%

C=CCN1CCC[C@@H]2C(=O)N3c4ccccc4C[C@@H]3[C@H]21 [Exemple 43, (4aS,11aR,11bS)-1-Allyl-1,2,3,4,4a,11,11a,11b-octahydropyrido[2',3':3,4]pyrrolo[1,2-a]indol-5-one]
quantité de TH au niveau du LC, coupe 1 (listed as Ex.43, 20 mg/kg): 69%
quantité de TH au niveau du LC, coupe 2 (listed as Ex.43, 20 mg/kg): 88%
quantité de TH au niveau du LC, coupe 3 (listed as Ex.43, 20 mg/kg): 87%
quantité de TH au niveau du LC, coupe 4 (listed as Ex.43, 20 mg/kg): 60%
quantité de TH au niveau du LC, coupe 5 (listed as Ex.43, 20 mg/kg): 36%
quantité de TH au niveau du LC, coupe 6 (listed as Ex.43, 20 mg/kg): 34%
quantité de TH au niveau du LC, coupe 7: 9%
quantité de TH au niveau du LC, coupe 8 (listed as Ex.43, 20 mg/kg): 4%
